# Measured values published in paper PMC3341351, “Down-Regulation of GABAA Receptor via Promiscuity with the Vasoactive Peptide Urotensin II Receptor. Potential Involvement in Astrocyte Plasticity” (PLoS ONE, 2012).
# Key:
# Type in all cases: cell-based
# [1] = system: α2β3γ1 GABAAR co-expressed with human UT; assay: Patch-clamp of Iso-evoked current in CHO-UT expressing α2β3γ1 GABAAR; conditions: hUII 10^−13 to 10^−7 M; Iso 10^−4 M, 2 s; −60 mV
# Protocol: (§1) CHO-K1 cell lines were obtained from American Type Culture Collection (Manassas, VA, USA). The human UT stable CHO (CHO-UT) was generously provided by Dr Christophe Dubessy (Inserm, Rouen University, France) et generated by CHO electroporation with 20 µg pIRES-neo2-UT DNA and 500 µg sterile sonicated salmon sperm DNA using the EasyJect One electroporation system (Equibio, Angleur, Belgium), followed by repetitive rounds of limiting dilution of cells in G-418 (400 µg/ml) for selection. Normal or stable CHO was grown in Ham-F12 medium supplemented with 10% FBS, 1% antibiotic-antimicotic solution and 2 mM glutamine, at 37°C in a humidified incubator with an atmosphere of 5% CO2. The stable CHO-UT medium was supplemented with the antibiotic G-418 (40 µg/ml).
# (§2) For transfection, cells were trypsinized (0.05%), triturated in HamF-12 containing 10% FBS media, pelleted by centrifugation, resuspended in 100 µl solution V for nucleofection by an Amaxa Nucleofector Device (Köln, Germany; set to program U-016). Experiments were performed on normal CHO or on the stable CHO-UT cells and transiently transfected with combinations of cDNA encoding α2β3γ2, α2β3γ1, α2β1γ2, α2β3γ1, α2β3, β3γ2 (4 µg of cDNA total/transfection) GABAAR subunits. Cells were seeded on 14-mm poly-L-lysine-coated glass bottom insert dishes at 5×10^5 cells in a volume of 0.5 ml/dish. […]
# [2] = system: α2β3 GABAAR co-expressed with human UT; assay: Patch-clamp of Iso-evoked current in CHO-UT expressing α2β3 GABAAR; conditions: hUII 10^−13 to 10^−7 M; Iso 10^−4 M, 2 s; −60 mV
# Protocol: as §1, §2
# [3] = system: GABAAR subunit combinations co-expressed with human UT; assay: Patch-clamp of GABA current in CHO co-expressing human UT and combinations of GABAAR subunits
# Protocol: as §1, §2
Substance,"Inhibitory effect on Iso-evoked current, α2β3γ1 [1]","Inhibitory effect on Iso-evoked current, α2β3 [2]",Activity on αβ binary complexes [3],"Depression of GABA current, order of subunit combinations [3]"
"ETPDCFWKYCV (disulfide) [hUII, human urotensin II, synthesized by solid phase methodology]",less effective,totally ineffective,,
"UII: Urotensin II, species not stated at that place (rUII in astrocytes, hUII in CHO and human cells)",,,inactive,markedly depressed the GABA current (β3γ2>α2β3γ2>α2β1γ2)
